A short description of data set [1]: physchem. In kind it is physicochemical. The source says: In fact, according to a preferred embodiment, the at least one surfactant is a blend of surfactants, more preferably a blend of sodium lauryl sulfate and polysorbate 80 (Tween 80). In a particularly preferred embodiment, the pharmaceutically acceptable additives further comprise at least one solubilizer. Preferably the solubilizer is povidone.

A short description of data set [2]: Accelerated stability of capsules, HPLC potency and impurities. In kind it is physicochemical. As to conditions: Initial. On the procedure: The accelerated stability of the capsules of Examples 1 and 2 was studied. The capsules were packaged in HDPE bottles and stored at 40° C./75% RH and under ICH option 2 light condition. The samples were assayed by HPLC for potency and impurities and by dissolution apparatus. […] No change in dissolution was also observed under all conditions.

In brackets after ≈: the same amount, converted by molar mass.

One may read the solubility as the dissolved amount per volume that the medium holds. High values mean much dissolved substance, low ones little dissolved substance. In the case of `CNC(=O)c1c(-c2ccc(F)cc2)oc2cc(N(CCO)S(C)(=O)=O)c(C3CC3)cc12`, in data set [1], the “solubility in aqueous medium at gastrointestinal pHs” value is “insoluble”. Also, in data set [1] (Solubility), the concentration in solution (solubility) was 20 µg/mL (≈ 44.8 µM). Further, in data set [2], the “Impurity (%) RRT: 1.06” value is <0.05%, the “Impurity (%) RRT: 1.45” value worked out at 0.13%, the “Impurity (%) RRT: 1.79” value was 0.05% and the “Impurity (%) RRT: 1.84” value amounted to 0.07%. In addition, the “Strength (%)” value in data set [2] amounted to 99.2%.

These data come from US20070128270A1.
